From PubChem BioAssay (NCI)
Values joined by “and” are separate entries in the source; they are usually repeats but may differ in a detail not shown here. Equal values may be shown once.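 These data come from cells grown in 96-well plates and exposed to compound for 48 hours at five concentrations. Here, GI50 denotes the concentration required for 50% inhibition of growth. TGI marks complete inhibition of growth.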

Tests used:
Assay in all cases: DTP human tumour cell line panel, 48 h
LOX IMVI melanoma = test system: LOX IMVI melanoma
A549 NSCLC = test system: A549 NSCLC
SNB-19 CNS = test system: SNB-19 CNS
SNB-75 CNS = test system: SNB-75 CNS
NCI-H522 lung = test system: NCI-H522 lung
K-562 leukemia = test system: K-562 leukemia
OVCAR-4 ovarian = test system: OVCAR-4 ovarian
MOLT-4 leukemia = test system: MOLT-4 leukemia
SF-295 CNS = test system: SF-295 CNS
T-47D breast = test system: T-47D breast

In the case of `Cc1cccc(C)c1NC(=O)CCCC(=O)CC(=O)/C=C/c1ccccc1`, the TGI (LOX IMVI melanoma) is reported as > 100 µM, the TGI (A549 NSCLC) is reported as > 100 µM and the TGI (SNB-19 CNS) is reported as > 100 µM. For the same compound, the TGI (SNB-75 CNS) was > 100 µM, the TGI (NCI-H522 lung) was > 100 µM and the TGI (K-562 leukemia) was > 100 µM. The TGI (OVCAR-4 ovarian) was > 100 µM and the TGI (MOLT-4 leukemia) was > 100 µM.
`COC1/C=C\C=C(/C)C(=O)Nc2cc3nc4ccc(Br)cc4oc-3c(c2=O)CC(C)CC(OC)C(O)C(C)/C=C(\C)C1OC(N)=O` (stereo not drawn) gave a GI50 (LOX IMVI melanoma) of 2.71 nM, a TGI (LOX IMVI melanoma) of 0.959 µM and a TGI (A549 NSCLC) of 22.7 µM. It also gave a TGI (SF-295 CNS) of 25.8 µM, a TGI (SNB-19 CNS) of 29.4 µM and a TGI (SNB-75 CNS) of 23.8 µM. For the same compound, the GI50 (NCI-H522 lung) was 0.00141 µM, the TGI (NCI-H522 lung) was 0.142 µM and the GI50 (K-562 leukemia) was 0.503 nM. It also gave a TGI (K-562 leukemia) of 7.03 µM, a TGI (OVCAR-4 ovarian) of 3.97 µM and a GI50 (MOLT-4 leukemia) of 3.1 nM. The TGI (MOLT-4 leukemia) was 0.466 µM.
In the case of `CCOC(=O)/C(=C\c1ccc(OCc2ccccc2)c(OC)c1)C(=O)c1ccccc1`, the TGI (LOX IMVI melanoma) is reported as 30 µM, the TGI (A549 NSCLC) is reported as > 10 µM and the TGI (SF-295 CNS) is reported as 46.8 µM. For the same compound, the TGI (SNB-19 CNS) was 66.4 µM, the TGI (NCI-H522 lung) was 32.6 µM and the TGI (K-562 leukemia) was 48.3 µM. The TGI (OVCAR-4 ovarian) was > 100 µM and the TGI (MOLT-4 leukemia) was 43.6 µM.
With `O=C(CNC(=O)OCc1ccccc1)Oc1ccccc1` the TGI (LOX IMVI melanoma) was > 100 µM, the TGI (A549 NSCLC) was > 100 µM and the TGI (SF-295 CNS) was > 100 µM. For the same compound, the TGI (SNB-19 CNS) was > 42.7 µM, the TGI (SNB-75 CNS) was > 100 µM and the TGI (NCI-H522 lung) was > 100 µM. For the same compound, the TGI (K-562 leukemia) was > 100 µM, the TGI (OVCAR-4 ovarian) was > 100 µM and the TGI (MOLT-4 leukemia) was > 100 µM.
For `CC(C)=CC(=O)Oc1ccc([N+](=O)[O-])cc1`, the TGI (A549 NSCLC) was > 100 µM, the TGI (SF-295 CNS) was > 100 µM and the TGI (SNB-19 CNS) was > 100 µM. For the same compound, the TGI (SNB-75 CNS) was > 100 µM, the TGI (NCI-H522 lung) was 14.8 µM and the TGI (K-562 leukemia) was > 100 µM. For the same compound, the TGI (OVCAR-4 ovarian) was > 100 µM and the TGI (MOLT-4 leukemia) was > 100 µM.
In the case of `CCOc1cc2c(cnc3c4cc(OC)c(OC)cc4ccc23)cc1OC`, the TGI (A549 NSCLC) is reported as > 100 µM, the TGI (SF-295 CNS) is reported as > 100 µM and the TGI (SNB-19 CNS) is reported as > 100 µM. The TGI (SNB-75 CNS) was > 100 µM, the TGI (NCI-H522 lung) was > 100 µM and the TGI (K-562 leukemia) was > 100 µM. The TGI (OVCAR-4 ovarian) was > 100 µM and the TGI (MOLT-4 leukemia) was > 100 µM.
`COC1/C(=C\C(=O)OC(C)(C)C)c2ccccc2N1C(C)=O` (stereo not drawn) was tested, and the TGI (A549 NSCLC) was > 100 µM, the TGI (SF-295 CNS) was > 100 µM and the TGI (SNB-19 CNS) was > 100 µM. The TGI (SNB-75 CNS) was > 100 µM, the TGI (K-562 leukemia) was > 100 µM and the TGI (OVCAR-4 ovarian) was > 100 µM. For the same compound, the TGI (MOLT-4 leukemia) was > 100 µM.
In the case of `CC(=O)OCC1OC(OC2CC3C(C)(C)C(OC(C)=O)CC[C@]3(C)C3CCC45CC4(CC[C@H]5C(C)CC(O)[C@@H](O)C(C)(C)O)[C@]23C)C(O)C(O)C1O` (stereo partly drawn), the GI50 (LOX IMVI melanoma) is reported as 3340 nM, the TGI (LOX IMVI melanoma) is reported as 13 µM and 11.2 µM and the GI50 (A549 NSCLC) is reported as 19.9 µM. For the same compound, the TGI (A549 NSCLC) was 14.2 µM and 35 µM, the GI50 (SF-295 CNS) was 4.41 µM and the TGI (SF-295 CNS) was 14.2 µM and 14.3 µM. For the same compound, the GI50 (SNB-19 CNS) was 4.35 µM, the TGI (SNB-19 CNS) was 13.2 µM and 14.8 µM and the GI50 (SNB-75 CNS) was 5.04 µM. The TGI (SNB-75 CNS) was 12 µM and 16.8 µM, the TGI (NCI-H522 lung) was 7.17 µM and 7.74 µM and the GI50 (K-562 leukemia) was 3470 nM. For the same compound, the TGI (K-562 leukemia) was 13.8 µM and 18.7 µM, the GI50 (OVCAR-4 ovarian) was 13.4 µM and the TGI (OVCAR-4 ovarian) was 12.7 µM and 26.1 µM. The GI50 (MOLT-4 leukemia) was 4.5 nM and the TGI (MOLT-4 leukemia) was 45 µM and 10.5 µM.
In the case of `N#CCc1ccc(C(C#N)/C(CCCC(=O)Nc2cccc([N+](=O)[O-])c2)=N\NC(=O)NN)cc1` (stereo not drawn), the TGI (A549 NSCLC) is reported as > 100 µM, the TGI (SF-295 CNS) is reported as > 100 µM and the TGI (SNB-19 CNS) is reported as > 100 µM. For the same compound, the TGI (SNB-75 CNS) was > 100 µM, the TGI (NCI-H522 lung) was > 100 µM and the TGI (K-562 leukemia) was > 100 µM. The TGI (OVCAR-4 ovarian) was > 100 µM and the TGI (MOLT-4 leukemia) was > 100 µM.
With `COc1ccc2nc(-c3ccccc3)cc(Nc3ccc(C(C)=O)cc3)c2c1` the GI50 (A549 NSCLC) was 11.9 µM, the TGI (A549 NSCLC) was 60.3 µM and the TGI (SF-295 CNS) was 1.57 µM. For the same compound, the GI50 (SNB-19 CNS) was 5.74 µM, the TGI (SNB-19 CNS) was 26.6 µM and the GI50 (T-47D breast) was 15.7 µM. The TGI (T-47D breast) was > 100 µM, the GI50 (SNB-75 CNS) was 17.9 µM and the TGI (SNB-75 CNS) was 42.5 µM. For the same compound, the GI50 (NCI-H522 lung) was 17.7 µM, the TGI (NCI-H522 lung) was > 100 µM and the GI50 (K-562 leukemia) was 1140 nM. For the same compound, the TGI (K-562 leukemia) was 11.7 µM, the GI50 (OVCAR-4 ovarian) was 12.1 µM and the TGI (OVCAR-4 ovarian) was > 100 µM. For the same compound, the GI50 (MOLT-4 leukemia) was 1980 nM and the TGI (MOLT-4 leukemia) was 4.93 µM.
